{"source": "patent US8921306B2", "about": "(The University of Queensland, priority 2010, dated 2014)", "key": {"[1]": {"assay": "Serum stability in normal human serum", "assay_type": "in vitro ADME", "details": "37° C., LCMS, read-out: half-life (t1/2) in normal human serum", "experimental": "Peptide stability was assessed in normal human serum (Sigma-Aldrich, NY, USA). The peptides were incubated with the serum in a water bath at 37° C. and aliquots were removed at specific time points. Serum proteins were precipitated after adding 3-fold excess acetonitrile, and proteins were precipitated by centrifugation at 17,000 rpm for 15 min. The supernatants were collected and analyzed by LCMS (4000 QTRAPR, Applied Biosystems) and all data normalized to the initial time point."}, "Human erythrocytes": {"system": "Human erythrocytes", "assay": "Haemolysis assay", "assay_type": "cell-based", "details": "37° C., 1 hour, absorbance at 544 nm", "experimental": "Human erythrocytes were obtained from the Australian Red Cross Blood Service and diluted with PBS (pH 7.4) 1:50 to give a positive control reading of between 1.5-2.0 at 544 nm.\nEqual amounts of cells were incubated with various concentrations of peptides and incubated at 37° C. for 1 hour. Cells were pelleted by centrifugation at 17,000 rpm for 5 minutes on a bench top centrifuge and the supernatant was collected. Haemolysis was assessed by reading the absorbance at 544 nm and normalized to 0% (PBS) and 100% (0.1% Triton-X100). This work was done with UQ ethics (200600011) and ARCBS (08-01QLD-07) approval."}, "circular dichroism": {"assay": "circular dichroism", "details": "10 mM phosphate; pH 7.4; 22 °C; 50-400 uM"}, "[2]": {"assay": "Circular dichroism spectroscopy (helicity)", "assay_type": "physicochemical", "experimental": "CD measurements were performed using a Jasco model J-710 spectropolarimeter which was routinely calibrated with (1S)-(+)-10-camphorsulfonic acid. A stock solution of 1-2 mg of peptide was dissolved in 1 mL of water. Separate 500 μL solutions of 50, 100, 200 and 400 μM were then prepared using an appropriate amount of stock solution and making up the different with 10 mM Phosphate Buffer (final pH 7.1). […] Jasco quartz cell over the wavelength range 260-185 nm at 100 nm/min. with a bandwidth of 1.0 nm, response time of 2 s, resolution step width of 1 nm and sensitivity of 20-50 Mdeg. Each spectrum represents the average of 5 scans. Spectra were analyzed using the spectral analysis software and smoothed using ‘adaptive smoothing’ function. Concentrations were determined using the PULCON method. [Wider, Dreier, 2006, J. Am. Chem. Soc. 128:2571-2576]\nThe incorporation of two lactam bridges induced appreciable helicity, monitored at 222 nm, and was calculated to range between 32-77% helicity. […] This is due to the fact that residues 1-6 (or 1-5 in 6) are not constrained and would not be expected to be in a helical conformation as they feature amino acids that have little or no propensity to adopt helices in proteins. To determine whether the exocyclic regions were the sole cause of low helicity, SEQ ID NO:15 without the N-terminal message was investigated further. This 12-residue peptide features eight residues (K, R, Q) known to favor α-helicity in proteins, and was 60% helical in phosphate buffer by CD spectral analysis. The serine residue is conserved within the sequence of many of these peptides and is known to be a helix breaker."}, "ORL-1 receptor [3]": {"molecular_target": "T1, ORL-1 receptor (Mus musculus, UniProt P35377)", "T1 construct": "Neuro-2a cells were a gift from Professor John Mattick's laboratory; endogenous in cells; host or cells: Neuro-2a cells", "T1 sequence (P35377 whole entry)": "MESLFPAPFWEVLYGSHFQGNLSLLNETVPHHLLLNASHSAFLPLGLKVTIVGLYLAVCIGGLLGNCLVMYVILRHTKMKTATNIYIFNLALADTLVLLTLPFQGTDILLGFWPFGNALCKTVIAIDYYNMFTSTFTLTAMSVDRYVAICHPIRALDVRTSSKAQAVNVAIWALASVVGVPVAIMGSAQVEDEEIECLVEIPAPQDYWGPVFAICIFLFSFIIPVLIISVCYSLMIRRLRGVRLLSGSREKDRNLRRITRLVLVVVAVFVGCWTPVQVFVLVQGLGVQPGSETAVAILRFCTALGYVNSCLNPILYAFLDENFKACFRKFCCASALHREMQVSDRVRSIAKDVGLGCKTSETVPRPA", "assay": "Agonist functional activity assessed by ERK phosphorylation (pERK) in Neuro-2a cells", "assay_type": "cell-based", "experimental": "(§1) Neuro-2a cells were a gift from Professor John Mattick's laboratory (Institute of Molecular Bioscience, University of Queensland) and were cultured in Gibco® DMEM (Invitrogen, CA, USA) supplemented with 10% FBS (Invitrogen, CA, USA), GIBCO® Pen/Strep (50 units/mL penicillin and 50 μg/mL streptomycin, Invitrogen, CA, USA) and GIBCO® NEAA (1× concentration, Invitrogen, CA, USA). Cells were split 1:10 every 3 days.\n(§2) All cells were incubated at 37° C. and 5% CO2. When treated with pertussis toxin (PTX, catalogue number P7208, Sigma-Aldrich, NY, USA), cells were incubated with 500 ng/mL for 15 hours before use. Cells treated with MEK inhibitor PD98059 (catalogue number PHZ1164, Invitrogen, CA, USA) were preincubated with 50 μM for 1 hour before use.\n(§3) Cells were placed in 12-well plates (NUNC™, NY, USA) and allowed to adhere for 24-36 h. […]\n(§4) Membranes were washed 3×10 minutes with TBE (with 0.1% Tween-20) and incubated with a primary antibody. […] Radiography was quantified using ImageJ (ImageI 1.36b, NIH).\n(§5) pERK and total ERK concentrations were determined using a modified protocol for the AlphaScreen Surefire Assay. […] The ratio of pERK to total ERK was determined using equation 1 and normalized to control. […]\n(§6) Concentration responses were analyzed using non-linear regression (variable slope) (Prism5, GraphPad Software) and data is presented as either EC50 (for agonists) or IC50 (antagonists). […]"}, "ORL-1 receptor [4]": {"molecular_target": "T1, ORL-1 receptor", "assay": "Antagonist functional activity assessed by ERK phosphorylation (pERK) in Neuro-2a cells challenged with 100 nM nociceptin(1-17)-NH2", "assay_type": "cell-based", "experimental": "as §1, §2, §3, §4, §5, §6"}, "C57BL/6 mice": {"system": "C57BL/6 mice", "assay": "Anti-nociceptive activity in mice, hot plate front paw withdrawal latency", "assay_type": "in vivo", "details": "co-administered 200 pmol with SEQ ID NO:8 (200 pmol)", "experimental": "Mice (C57BL/6; n=45) were brought into the experimental room for at least 30 minutes prior to testing. They were then individually placed on an accredited hot plate heated to 53±0.54° C. and timed until any front paw withdrawal, licking or jumping behaviour was recorded (baseline response). Mice were not left on the hot plate for longer than 30 sec. […] Mice were then individually placed on the hot plate again at time points 1, 5, 15, 30, 45 and 60 min post injection. Each test was video monitored.\nIn a parallel experiment, agonist of SEQ ID NO:8 was co-administered with the helical antagonist of SEQ ID NO:13, where upon the increased paw withdrawal latency produced by agonist of SEQ ID NO:8 alone was abolished. This confirms that the helix constrained peptide of SEQ ID NO:13 is a potent antagonist of SEQ ID NO:8 in vivo."}}, "data": [{"molecule": "CC(C)C[C@H](NC(=O)[C@H](CCCCN)NC(=O)[C@H](CCCN=C(N)N)NC(=O)[C@H](C)NC(=O)[C@H](CO)NC(=O)[C@H](CCCCN)NC(=O)[C@H](CCCN=C(N)N)NC(=O)[C@H](C)NC(=O)CNC(=O)[C@@H](NC(=O)[C@H](Cc1ccccc1)NC(=O)CNC(=O)CNC(=O)[C@@H](N)Cc1ccccc1)[C@@H](C)O)C(=O)N[C@@H](C)C(=O)N[C@@H](CC(N)=O)C(=O)N[C@@H](CCC(N)=O)C(=O)O", "note": "[SEQ ID NO:1, reference compound]", "values": [{"measurement": "half-life", "setting": "[1]", "value": "≤ 1", "unit": "h"}, {"measurement": "haemolytic activity", "setting": "Human erythrocytes", "value": "Neither of the cyclic peptides tested (SEQ ID NOs:7 AND 8), nor the unconstrained nociceptin(1-17)-OH (SEQ ID NO:1) had any haemolytic activity"}]}, {"molecule": "C[C@@H]1NC(=O)[C@@H](NC(=O)[C@H](CCCCN)NC(=O)[C@H](CCCN=C(N)N)NC(=O)[C@@H]2CC(=O)NCCCC[C@H](NC(=O)CNC(=O)[C@@H](NC(=O)[C@H](Cc3ccccc3)NC(=O)CNC(=O)CNC(=O)[C@@H](N)Cc3ccccc3)[C@@H](C)O)C(=O)N[C@@H](CCCN=C(N)N)C(=O)N[C@@H](CCCCN)C(=O)N[C@@H](CO)C(=O)N2)CCCCNC(=O)C[C@@H](C(N)=O)NC(=O)[C@H](CCC(N)=O)NC(=O)[C@H](CC(N)=O)NC1=O", "note": "[SEQ ID NO:7, H-FGGFTG[KRKSD]RK[KANQD]-NH2]", "values": [{"measurement": "half-life", "setting": "[1]", "value": "> 6", "unit": "h"}, {"measurement": "haemolytic activity", "setting": "Human erythrocytes", "value": "Neither of the cyclic peptides tested (SEQ ID NOs:7 AND 8), nor the unconstrained nociceptin(1-17)-OH (SEQ ID NO:1) had any haemolytic activity"}]}, {"molecule": "C[C@@H](O)[C@H](NC(=O)[C@H](Cc1ccc(F)cc1)NC(=O)CNC(=O)CNC(=O)[C@@H](N)Cc1ccccc1)C(=O)NCC(=O)N[C@H]1CCCCNC(=O)C[C@@H](C(=O)N[C@@H](CCCN=C(N)N)C(=O)N[C@@H](CCCCN)C(=O)N[C@H]2CCCCNC(=O)C[C@@H](C(N)=O)NC(=O)[C@H](CCC(N)=O)NC(=O)[C@H](CC(N)=O)NC(=O)[C@H](CCCCN)NC2=O)NC(=O)[C@H](CO)NC(=O)[C@H](CCCCN)NC(=O)[C@H](CCCN=C(N)N)NC1=O", "note": "[SEQ ID NO:8, H-FGGF(4-F)TG[KRKSD]RK[KKNQD]-NH2]", "values": [{"measurement": "half-life", "setting": "[1]", "value": "> 6", "unit": "h"}, {"measurement": "haemolytic activity", "setting": "Human erythrocytes", "value": "Neither of the cyclic peptides tested (SEQ ID NOs:7 AND 8), nor the unconstrained nociceptin(1-17)-OH (SEQ ID NO:1) had any haemolytic activity"}]}, {"molecule": "CC(C)C[C@H](NC(=O)[C@H](CCCCN)NC(=O)[C@H](CCCNC(=N)N)NC(=O)[C@H](C)NC(=O)[C@H](CO)NC(=O)[C@H](CCCCN)NC(=O)[C@H](CCCNC(=N)N)NC(=O)[C@H](C)NC(=O)CNC(=O)[C@@H](NC(=O)[C@H](Cc1ccccc1)NC(=O)CNC(=O)CNC(=O)[C@@H](N)Cc1ccccc1)[C@@H](C)O)C(=O)N[C@@H](C)C(=O)N[C@@H](CC(N)=O)C(=O)N[C@@H](CCC(N)=O)C(=O)O", "note": "[compound 1]", "values": [{"measurement": "helicity", "setting": "circular dichroism", "value": 0.02, "unit": "frac"}, {"measurement": "fH (buffer)", "setting": "[2]; 10 mM phosphate buffer (pH 7.4) at 22° C., fH calculated based on θ at 222 nm", "value": 0.02}, {"measurement": "fH (TFE*)", "setting": "[2]; buffer: TFE 50:50, 22° C.", "value": 0.15}, {"measurement": "Emax", "setting": "ORL-1 receptor [3]; N2a", "value": "90 ± 7", "unit": "%"}]}, {"molecule": "Ac-[KRKSD]RK[KKNQD]-NH2 (XRKSXRKXKNQX; N-acetyl, cyclic lactams, C-amide) [SEQ ID NO:15]", "values": [{"measurement": "helicity", "setting": "[2]; phosphate buffer, CD monitored at 222 nm", "value": 60, "unit": "%"}]}, {"molecule": "BzlGGGF(4-F)TG[KRKSD]RK[KKNQD]-NH2 (XGGXTGXRKSXRKXKNQX; N-benzyl, 4-F-Phe, cyclic lactams, C-amide) [SEQ ID NO:13]", "values": [{"measurement": "agonist activity at single point concentration", "setting": "ORL-1 receptor [3]; 1 μM", "value": "neither showed significant agonist activity"}, {"measurement": "improvement in antagonist activity (fold)", "setting": "ORL-1 receptor [4]; constrained relative to unconstrained analogue", "value": "over four-fold"}, {"measurement": "effect on increased paw withdrawal latency produced by agonist SEQ ID NO:8", "setting": "C57BL/6 mice", "value": "abolished"}]}, {"molecule": "BzlGlyGGFT[KARKD][KRKLD]-NH2 (XGGFTXARKXXRKLX; N-benzyl, cyclic lactams, C-amide) [SEQ ID NO:14]", "values": [{"measurement": "antagonist activity", "setting": "ORL-1 receptor [4]; up to 3 μM", "value": "abolished antagonist activity"}]}]}
